Source: patent US7842695B2, “Substituted pyrazole compounds” (Merck Patent GmbH, priority 2003, dated 2010)

How the values were obtained:
5-HT2A receptors = 5-HT2A receptors (UniProt P14842); assay: in-vitro affinity to 5-HT2A receptors, [3H]ketanserine displacement (Example A1); format: binding
Description: The 5-HT2A receptors are exposed both to [^3H]ketanserine (a substance known for its affinity to the receptor) and also to the test compound. The decrease in the affinity of [^3H]ketanserine to the receptor is an indication of the affinity of the test substance to the 5-HT2A receptor.

5 HT2C receptor = biological target: T1, 5 HT2C receptor (Homo sapiens, UniProt P28335); assay: affinity to the 5 HT2C receptor; format: binding
T1 sequence (P28335 33-458): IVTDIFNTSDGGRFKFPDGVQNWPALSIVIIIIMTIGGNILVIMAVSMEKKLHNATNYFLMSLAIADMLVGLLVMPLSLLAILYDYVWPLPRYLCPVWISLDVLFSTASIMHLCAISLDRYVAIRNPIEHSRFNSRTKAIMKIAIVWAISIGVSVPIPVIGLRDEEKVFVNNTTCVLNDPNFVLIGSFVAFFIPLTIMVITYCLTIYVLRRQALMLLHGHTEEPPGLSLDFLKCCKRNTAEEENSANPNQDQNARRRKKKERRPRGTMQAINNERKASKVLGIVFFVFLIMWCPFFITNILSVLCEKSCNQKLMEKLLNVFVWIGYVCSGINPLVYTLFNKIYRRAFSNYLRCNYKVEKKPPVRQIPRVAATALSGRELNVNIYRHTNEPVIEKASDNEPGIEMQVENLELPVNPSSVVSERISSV

SMILES | IC50 (5-HT2A receptors) [nM] | IC50 (5 HT2C receptor) [nM]
CCN1CCN(Cc2cnn(-c3ccc(-c4ccc(F)cc4)cn3)c2-c2ccco2)CC1 [Example 583, 1-Ethyl-4-{1-[5-(4-fluorophenyl)pyridin-2-yl]-5-furan-2-yl-1H-pyrazol-4-ylmethyl}piperazine] | 18 | 1000
c1coc(-c2c(CN3CCNCC3)cnn2-c2ccc(-c3ccc4c(c3)OCCO4)cc2)c1 [Example 595, 1-{1-[4-(2,3-Dihydrobenzo-1,4-dioxin-6-yl)phenyl]-5-furan-2-yl-1H-pyrazol-4-ylmethyl}piperazine] | 22 | 150
COc1ccc(-c2ccc(-n3ncc(CN(C)C)c3-c3ccco3)cc2)cc1 [Example 542, [5-Furan-2-yl-1-(4′-methoxybiphenyl-4-yl)-1H-pyrazol-4-ylmethyl]dimethylamine] | 3.8 | 290
Cc1ccoc1-c1c(CN(C)C)cnn1-c1ccc(-c2ccc(F)cc2)cc1 [Example 553, [1-(4′-Fluorobiphenyl-4-yl)-5-(3-methyl-2-furanyl)-1H-pyrazol-4-ylmethyl]dimethylamine] | 6.5 | 360
CN1CCN(C(=O)c2cnn(-c3ccccc3)c2NC(=O)c2ccccc2F)CC1 [Example 640] | 44 | 1000
COc1ccc(-c2ccc(-n3ncc(CN4CCN(C)CC4)c3-c3ccccc3F)cc2)cc1OC [Example 644, 1-[1-(3′,4′-Dimethoxybiphenyl-4-yl)-5-(2-fluorophenyl)-1H-pyrazol-4-ylmethyl]-4-methylpiperazine] | 49 | 1000
CN1CCN(Cc2cnn(-c3ccc(-c4ccc5c(c4)OCO5)cc3)c2-c2ccco2)CC1 [Example 550, 1-[1-(4-Benzo-1,3-dioxol-5-ylphenyl)-5-furan-2-yl-1H-pyrazol-4-ylmethyl]-4-methylpiperazine] | 5.8 | 170
CN1CCN(Cc2cnn(-c3ccc(-c4ccc(F)cc4)cc3)c2-c2ccco2)CC1 [Example 532, 1-[1-(4′-Fluorobiphenyl-4-yl)-5-furan-2-yl-1H-pyrazol-4-ylmethyl]-4-methylpiperazine] | 1.48 | 190
CN1CCN(Cc2cnn(-c3ccc(-c4ccc(F)cc4)cc3)c2-c2cccc(Cl)c2)CC1 [Example 619, 1-[5-(3-Chlorophenyl)-1-(4′-fluorobiphenyl-4-yl)-1H-pyrazol-4-ylmethyl]-4-methylpiperazine] | 34 | 1000
COc1ccc(-c2c(CN3CCN(CCN(C)C)CC3)cnn2-c2ccc(-c3ccc(F)cc3)cc2)cc1 [Example 607, (2-{4-[1-(4′-Fluorobiphenyl-4-yl)-5-(4-methoxyphenyl)-1H-pyrazol-4-ylmethyl]-1-piperazinyl}ethyl)dimethylamine] | 29 | 1000
OC1CCN(Cc2cnn(-c3ccc(-c4ccc(F)cc4)cc3)c2-c2cccc(Cl)c2)C1 (stereo not drawn) [Example 618, 1-[5-(3-Chlorophenyl)-1-(4′-fluorobiphenyl-4-yl)-1H-pyrazol-4-ylmethyl]pyrrolidin-3-ol] | 33 | 1000
CCN1CCN(Cc2cnn(-c3ccc(-c4cccc(F)c4)cc3)c2-c2ccco2)CC1 [Example 570, 1-Ethyl-4-[1-(3′-fluorobiphenyl-4-yl)-5-furan-2-yl-1H-pyrazol-4-ylmethyl]piperazine] | 12 | 500
CN1CCN(Cc2cnn(-c3ccc(-c4ccc(Oc5ccccc5)cc4)cc3)c2-c2ccccc2F)CC1 [Example 634, 1-[5-(2-Fluorophenyl)-1-(4′-phenoxybiphenyl-4-yl)-1H-pyrazol-4-ylmethyl]-4-methylpiperazine] | 41 | 970
COc1ccc(-c2ccc(-n3ncc(CN4CCC(O)C4)c3-c3ccco3)cc2)cc1 (stereo not drawn) [Example 564, 1-[5-Furan-2-yl-1-(4′-methoxybiphenyl-4-yl)-1H-pyrazol-4-ylmethyl]pyrrolidin-3-ol] | 10 | 630
CN(C)Cc1cnn(-c2ccc(-c3cccc(F)c3)cc2)c1-c1ccco1 [Example 538, [1-(3′-Fluorobiphenyl-4-yl)-5-furan-2-yl-1H-pyrazol-4-ylmethyl]dimethylamine] | 3.4 | 170
CN1CCN(Cc2cnn(-c3ccc(-c4ccsc4)cc3)c2-c2ccccc2F)CC1 [Example 574, 1-[5-(2-Fluorophenyl)-1-(4-thiophen-3-ylphenyl)-1H-pyrazol-4-ylmethyl]-4-methylpiperazine] | 14 | 520
c1coc(-c2c(CN3CCNCC3)cnn2-c2ccc(-c3ccc4c(c3)OCO4)cc2)c1 [Example 534, 1-[1-(4-Benzo-1,3-dioxol-5-ylphenyl)-5-furan-2-yl-1H-pyrazol-4-ylmethyl]piperazine] | 2 | 110

SMILES | IC50 (5-HT2A receptors) [nM] | IC50 (5 HT2C receptor) [nM]
CCN1CCN(Cc2cnn(-c3ccc(-c4ccc(F)cc4)cc3)c2-c2occc2C)CC1 [Example 536, 1-Ethyl-4-[1-(4′-fluorobiphenyl-4-yl)-5-(3-methyl-2-furanyl)-1H-pyrazol-4-ytmethyl]piperazine] | 3 | 1000
Fc1cccc(-c2ccc(-n3ncc(CN4CCN(C5CCCC5)CC4)c3-c3ccco3)cc2)c1 [Example 605, 1-Cyclopentyl-4-[1-(3′-fluorobiphenyl-4-yl)-5-furan-2-yl-1H-pyrazol-4-ylmethyl]piperazine] | 26.8 | 2940
c1coc(-c2c(CN3CCN(C4CCCC4)CC3)cnn2-c2ccc(-c3ccc4c(c3)OCO4)cc2)c1 [Example 569, 1-[1-(4-Benzo-1,3-dioxol-5-ylphenyl)-5-furan-2-yl-1H-pyrazol-4-ylmethyl]-4-cyclopentylpiperazine] | 12 | 1000
CN1CCC(N(C)Cc2cnn(-c3ccc(-c4ccc(F)cc4)cc3)c2-c2ccco2)C1 (stereo not drawn) [Example 543, [1-(4′-Fluorobiphenyl-4-yl)-5-furan-2-yl-1H-pyrazol-4-ylmethyl]methyl-(1-methyl-3-pyrrolidinyl)amine] | 4 | 370
Cc1ccoc1-c1c(CN2CCC(O)C2)cnn1-c1ccc(-c2ccc(F)cc2)cc1 (stereo not drawn) [Example 596, 1-[1-(4′-Fluorobiphenyl-4-yl)-5-(3-methyl-2-furanyl)-1H-pyrazol-4-ylmethyl]pyrrolidin-3-ol] | 22 | 1000
CCN(CC)Cc1cnn(-c2ccc(-c3ccc(OC)cc3)cc2)c1-c1ccco1 [Example 601, Diethyl-[5-furan-2-yl-1-(4′-methoxybiphenyl-4-yl)-1H-pyrazol-4-ylmethyl]amine] | 26 | 1000
CN1CCN(Cc2cnn(-c3ccc(-c4cccc(F)c4)cc3)c2-c2ccccc2F)CC1 [Example 549, 1-[1-(3′-Fluorobiphenyl-4-yl)-5-(2-fluorophenyl)-1H-pyrazol-4-ylmethyl]-4-methylpiperazine] | 5.4 | 460
CN1CCN(Cc2cnn(-c3ccc(-c4ccc(F)cc4)cc3)c2-c2ccoc2)CC1 [Example 586, 1-[1-(4′-Fluorobiphenyl-4-yl)-5-furan-3-yl-1H-pyrazol-4-ylmethyl]-4-methylpiperazine] | 19 | 1000
COc1ccc(-c2ccc(-n3ncc(CN4CCN(C)CC4)c3-c3ccccc3F)cc2)cc1F [Example 585, 1-[1-(3′-Fluoro-4′-methoxybiphenyl-4-yl)-5-(2-fluorophenyl)-1H-pyrazol-4-ylmethyl]-4-methylpiperazine] | 19 | 760
CCN(CC)Cc1cnn(-c2ccc(-c3ccc4c(c3)OCCO4)cc2)c1-c1ccco1 [Example 630, {1-[4-(2,3-Dihydrobenzo-1,4-dioxin-6-yl)phenyl]-5-furan-2-yl-1H-pyrazol-4-ylmethyl}diethylamine] | 38 | 900
CN1CCC(N(C)Cc2cnn(-c3ccc(-c4ccc(F)cc4)cc3)c2-c2ccco2)C1 (stereo not drawn) [Example 529, [1-(4′-Fluorobiphenyl-4-yl)-5-furan-2-yl-1H-pyrazol-4-ylmethyl]methyl-(1-methylpyrrolidin-3-yl)amine] | 0.514 | 434
CN(C)Cc1cnn(-c2ccc(-c3ccc(F)cc3)cc2)c1-c1ccoc1 [Example 576, [1-(4′-Fluorobiphenyl-4-yl)-5-furan-3-yl-1H-pyrazol-4-ylmethyl]dimethylamine] | 16 | 180
COc1cccc(-c2c(CN(C)C)cnn2-c2ccc(-c3ccc(F)cc3)cc2)c1 [Example 592, [1-(4′-Fluorobiphenyl-4-yl)-5-(3-methoxyphenyl)-1H-pyrazol-4-ylmethyl]dimethylamine] | 20 | 510
CN(C)Cc1cnn(-c2ccc(-c3ccc4c(c3)OCCO4)cc2)c1-c1ccco1 [Example 540, {1-[4-(2,3-Dihydrobenzo-1,4-dioxin-6-yl)phenyl]-5-furan-2-yl-1H-pyrazol-4-ylmethyl}dimethylamine] | 3.6 | 180
Cc1ccoc1-c1c(CN2CCN(C)CC2)cnn1-c1ccc(-c2ccc(F)cc2)cc1 [Example 560, 1-[1-(4′-Fluorobiphenyl-4-yl)-5-(3-methyl-2-furanyl)-1H-pyrazol-4-ylmethyl]-4-methylpiperazine] | 8.9 | 780
COc1ccc(-c2ccc(-n3ncc(CN4CCN(C5CCCC5)CC4)c3-c3ccco3)cc2)cc1 [Example 552, 1-Cyclopentyl-4-[5-furan-2-yl-1-(4′-methoxybiphenyl-4-yl)-1H-pyrazol-4-ylmethyl]piperazine] | 6.1 | 2950
